Reference: ChEMBL document CHEMBL1201862, “PubChem BioAssay data set” (2004)
The source made the active and inactive calls.

Key:
[1] = system: HEK293; assay: cells; conditions: Homo sapiens
[2] = system: HEK293; assay: cells; conditions: Homo sapiens; remark: listed apart in the source
[3] = Luminescence Cell-Based Dose Retest to Confirm Inhibitors of Cancer Stem Cells. [Related pubchem assays (depositor defined):AID2717, AID2721]; format: functional; conditions: Homo sapiens
[4] = viability loss of HMLE_sh_eGFP cells – cell-based, luminescence, counter-screen for HMLE_sh_ECad selective toxicity project, dose response (AID 463074); format: functional, Homo sapiens;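 note: HMLE human mammary epithelial cells expressing control shRNA against eGFP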
[5] = biological target: Intestinal-type alkaline phosphatase (Homo sapiens, UniProt P09923); assay: inhibition of human intestinal alkaline phosphatase – biochemical, dose response (AID 488876); format: functional
Sequence of Intestinal-type alkaline phosphatase (Homo sapiens, UniProt P09923) (P09923 whole entry): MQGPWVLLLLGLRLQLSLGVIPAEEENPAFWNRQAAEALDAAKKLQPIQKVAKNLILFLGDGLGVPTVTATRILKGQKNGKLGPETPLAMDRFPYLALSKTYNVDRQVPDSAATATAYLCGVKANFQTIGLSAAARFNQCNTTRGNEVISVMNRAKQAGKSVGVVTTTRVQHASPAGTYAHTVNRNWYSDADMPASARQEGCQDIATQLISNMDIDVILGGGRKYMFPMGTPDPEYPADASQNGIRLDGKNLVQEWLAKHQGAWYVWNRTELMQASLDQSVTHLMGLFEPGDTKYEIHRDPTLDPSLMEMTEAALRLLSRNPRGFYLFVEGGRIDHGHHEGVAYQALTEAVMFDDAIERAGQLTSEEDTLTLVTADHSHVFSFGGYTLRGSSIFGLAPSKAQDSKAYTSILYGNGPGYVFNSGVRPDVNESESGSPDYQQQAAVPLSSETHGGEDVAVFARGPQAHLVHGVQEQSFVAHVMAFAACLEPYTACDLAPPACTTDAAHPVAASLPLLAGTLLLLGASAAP

[6] = biological target: Intestinal-type alkaline phosphatase (Mus musculus, UniProt P24822); assay: PubChem AID 488785; format: functional
Sequence of Intestinal-type alkaline phosphatase (Mus musculus, UniProt P24822) (P24822 whole entry): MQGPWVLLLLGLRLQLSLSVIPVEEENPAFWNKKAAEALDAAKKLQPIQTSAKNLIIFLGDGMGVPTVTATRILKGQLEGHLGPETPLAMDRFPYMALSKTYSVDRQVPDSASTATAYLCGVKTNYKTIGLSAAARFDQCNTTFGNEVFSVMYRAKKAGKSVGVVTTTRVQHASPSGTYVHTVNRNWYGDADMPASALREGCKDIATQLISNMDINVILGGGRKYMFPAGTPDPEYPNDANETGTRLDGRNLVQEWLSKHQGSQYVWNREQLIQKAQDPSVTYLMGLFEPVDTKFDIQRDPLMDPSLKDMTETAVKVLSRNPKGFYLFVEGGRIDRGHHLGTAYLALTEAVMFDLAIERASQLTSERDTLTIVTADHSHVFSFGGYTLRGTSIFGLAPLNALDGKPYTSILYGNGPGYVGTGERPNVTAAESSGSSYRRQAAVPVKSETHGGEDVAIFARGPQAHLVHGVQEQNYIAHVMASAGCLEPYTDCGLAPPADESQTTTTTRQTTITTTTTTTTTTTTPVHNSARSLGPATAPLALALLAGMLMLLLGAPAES

[7] = biological target: T1, Alkaline phosphatase, tissue-nonspecific isozyme (Homo sapiens, UniProt P05186); assay: TNAP enzyme inhibition by screening hits, dose response, selectivity assay for mouse IAP inhibitor project, biochemical, human TNAP, uHTS hits (AID 488906); format: functional
T1 sequence (P05186 whole entry): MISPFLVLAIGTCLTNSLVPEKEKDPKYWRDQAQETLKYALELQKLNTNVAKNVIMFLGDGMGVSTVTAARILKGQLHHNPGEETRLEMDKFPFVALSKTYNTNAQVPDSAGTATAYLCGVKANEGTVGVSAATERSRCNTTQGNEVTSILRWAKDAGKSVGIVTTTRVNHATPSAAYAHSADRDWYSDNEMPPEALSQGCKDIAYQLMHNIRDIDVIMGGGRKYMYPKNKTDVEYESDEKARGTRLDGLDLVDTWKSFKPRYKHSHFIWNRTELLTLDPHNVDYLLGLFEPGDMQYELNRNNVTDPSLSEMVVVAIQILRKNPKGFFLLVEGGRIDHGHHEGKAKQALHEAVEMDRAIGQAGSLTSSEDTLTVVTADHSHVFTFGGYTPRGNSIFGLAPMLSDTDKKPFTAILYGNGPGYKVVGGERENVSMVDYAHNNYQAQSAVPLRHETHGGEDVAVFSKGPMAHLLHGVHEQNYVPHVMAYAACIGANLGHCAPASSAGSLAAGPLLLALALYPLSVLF

[8] = biological target: T2, Streptokinase A (Streptococcus pyogenes serotype M1, UniProt P10520); assay: viability-normalized secreted streptokinase activity reduction – plasminogen activation absorbance, OD405, dose response (AID 1914); format: functional, Streptococcus pyogenes M1 GAS;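 note: secreted streptokinase activity via plasminogen activation per viability signal from cell pellet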
T2 sequence (P10520 whole entry): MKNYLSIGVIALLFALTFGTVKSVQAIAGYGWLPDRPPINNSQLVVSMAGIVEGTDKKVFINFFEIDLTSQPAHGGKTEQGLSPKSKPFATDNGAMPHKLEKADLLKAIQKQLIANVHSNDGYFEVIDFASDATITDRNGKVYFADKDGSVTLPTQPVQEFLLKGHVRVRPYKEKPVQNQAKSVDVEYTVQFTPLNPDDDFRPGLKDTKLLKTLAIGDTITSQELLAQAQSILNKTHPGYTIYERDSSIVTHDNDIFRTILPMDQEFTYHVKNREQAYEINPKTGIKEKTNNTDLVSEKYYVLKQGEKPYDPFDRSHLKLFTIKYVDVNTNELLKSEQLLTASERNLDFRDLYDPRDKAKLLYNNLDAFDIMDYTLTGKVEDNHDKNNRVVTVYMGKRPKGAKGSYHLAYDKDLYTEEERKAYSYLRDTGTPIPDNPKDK

[9] = NIH3T3 cell viability loss – ATP luminescence, mouse fibroblasts, counter-screen, dose response (AID 2010); format: functional, cell-based; conditions: NIH3T3;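 note: cells exposed to compound for about 90 hours before reading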
[10] = biological target: T3, DNA repair protein RAD52 homolog (Homo sapiens, UniProt P43351); format: functional, biochemical
T3 sequence (P43351 whole entry): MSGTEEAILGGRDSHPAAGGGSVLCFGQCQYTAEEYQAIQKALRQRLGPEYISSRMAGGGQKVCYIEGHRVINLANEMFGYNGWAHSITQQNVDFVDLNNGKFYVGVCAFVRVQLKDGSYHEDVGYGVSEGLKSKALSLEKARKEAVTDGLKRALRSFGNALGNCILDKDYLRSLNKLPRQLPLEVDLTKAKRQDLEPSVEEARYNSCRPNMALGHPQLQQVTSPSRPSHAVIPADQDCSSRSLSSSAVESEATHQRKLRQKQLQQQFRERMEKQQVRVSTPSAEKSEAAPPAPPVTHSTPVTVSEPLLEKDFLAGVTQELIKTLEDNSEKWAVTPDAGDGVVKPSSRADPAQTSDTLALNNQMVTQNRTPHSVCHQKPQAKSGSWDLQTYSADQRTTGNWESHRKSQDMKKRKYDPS

[11] = biological target: T4, Ubiquitin-conjugating enzyme E2 N (Homo sapiens, UniProt P61088); format: functional;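 note: Dose-response confirmation in a TR-FRET assay detecting UBC13-driven polyubiquitin chain formation, inhibition measured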
T4 sequence (P61088 whole entry): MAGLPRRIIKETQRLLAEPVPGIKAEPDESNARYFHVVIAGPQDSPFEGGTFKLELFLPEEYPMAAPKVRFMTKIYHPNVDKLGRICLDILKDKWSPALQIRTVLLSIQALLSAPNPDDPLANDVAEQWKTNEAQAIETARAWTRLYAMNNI

[12] = Trypanosoma cruzi growth suppression in host cells – NIH3T3 host cells, beta-gal luminescence, confirmation (AID 2044); format: functional, cell-based;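 note: intracellular parasites grown in NIH/3T3 mouse fibroblasts as host cells; luminescent beta-galactosidase reporter signal from transgenic T. cruzi replicating inside host cells; inhibitors lower the luminescence signal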
[13] = biological target: Procathepsin L (Homo sapiens, UniProt P07711)
Sequence of Procathepsin L (P07711 whole entry): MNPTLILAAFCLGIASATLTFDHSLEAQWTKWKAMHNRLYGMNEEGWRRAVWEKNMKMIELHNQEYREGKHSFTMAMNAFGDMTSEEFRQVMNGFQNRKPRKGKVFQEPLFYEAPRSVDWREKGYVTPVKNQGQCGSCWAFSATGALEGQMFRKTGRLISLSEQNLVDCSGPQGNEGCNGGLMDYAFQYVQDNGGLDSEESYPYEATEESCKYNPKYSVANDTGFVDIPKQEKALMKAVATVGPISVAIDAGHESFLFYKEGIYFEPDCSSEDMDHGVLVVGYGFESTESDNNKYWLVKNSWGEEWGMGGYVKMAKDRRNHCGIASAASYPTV

[14] = biological target: T5, Aspartyl aminopeptidase (Plasmodium falciparum 3D7, UniProt Q8I2J3)
T5 sequence (Q8I2J3 whole entry): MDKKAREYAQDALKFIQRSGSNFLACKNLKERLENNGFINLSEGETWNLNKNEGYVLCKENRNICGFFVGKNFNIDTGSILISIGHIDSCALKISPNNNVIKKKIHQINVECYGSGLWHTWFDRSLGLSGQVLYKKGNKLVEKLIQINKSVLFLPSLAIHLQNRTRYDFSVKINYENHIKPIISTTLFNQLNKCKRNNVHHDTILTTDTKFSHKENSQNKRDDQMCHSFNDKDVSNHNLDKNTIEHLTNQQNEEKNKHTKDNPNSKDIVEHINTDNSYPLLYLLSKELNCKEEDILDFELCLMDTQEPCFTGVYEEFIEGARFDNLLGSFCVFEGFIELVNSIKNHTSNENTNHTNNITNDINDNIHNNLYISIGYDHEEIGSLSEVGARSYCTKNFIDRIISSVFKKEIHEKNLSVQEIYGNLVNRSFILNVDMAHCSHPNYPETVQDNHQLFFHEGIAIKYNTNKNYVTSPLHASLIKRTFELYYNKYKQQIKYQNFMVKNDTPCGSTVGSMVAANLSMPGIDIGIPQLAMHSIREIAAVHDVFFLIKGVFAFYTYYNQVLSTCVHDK

[15] = biological target: T6, Rac GTPase-activating protein 1 (Homo sapiens, UniProt Q9H0H5); assay: blockers of MgcRacGAP-driven Rac1 GTP hydrolysis – biochemical, ADP Hunter fluorescence, primary and confirmatory, confirmation (AID 624330); format: functional
T6 sequence (Q9H0H5 whole entry): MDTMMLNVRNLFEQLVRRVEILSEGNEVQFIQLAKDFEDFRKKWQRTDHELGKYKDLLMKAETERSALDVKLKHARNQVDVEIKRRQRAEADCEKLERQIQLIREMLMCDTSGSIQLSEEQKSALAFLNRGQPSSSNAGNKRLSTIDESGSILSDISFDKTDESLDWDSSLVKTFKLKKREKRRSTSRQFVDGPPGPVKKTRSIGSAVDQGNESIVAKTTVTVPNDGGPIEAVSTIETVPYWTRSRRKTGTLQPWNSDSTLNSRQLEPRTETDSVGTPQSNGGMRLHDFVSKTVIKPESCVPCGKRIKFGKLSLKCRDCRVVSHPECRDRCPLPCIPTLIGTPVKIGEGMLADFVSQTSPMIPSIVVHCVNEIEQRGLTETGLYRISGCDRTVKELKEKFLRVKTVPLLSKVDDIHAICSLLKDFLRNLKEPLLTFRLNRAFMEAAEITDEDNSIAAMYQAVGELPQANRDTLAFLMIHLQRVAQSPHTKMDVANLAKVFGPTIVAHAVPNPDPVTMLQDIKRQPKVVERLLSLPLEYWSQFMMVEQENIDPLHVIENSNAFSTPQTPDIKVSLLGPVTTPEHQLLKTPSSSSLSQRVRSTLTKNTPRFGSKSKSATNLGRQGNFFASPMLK

[16] = biological target: Bcl-2-like protein 10 (Homo sapiens, UniProt Q9HD36); assay: Bcl-B/TR3 peptide binding disruption – biochemical, fluorescence polarization, FITC-TR3 peptide, selectivity assay for Bfl-1 inhibitor project, primary screen (AID 748);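 note: fluorescence polarization from a fluorescein-labelled TR3 peptide binding purified Bcl-B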
Sequence of Bcl-2-like protein 10 (Q9HD36 whole entry): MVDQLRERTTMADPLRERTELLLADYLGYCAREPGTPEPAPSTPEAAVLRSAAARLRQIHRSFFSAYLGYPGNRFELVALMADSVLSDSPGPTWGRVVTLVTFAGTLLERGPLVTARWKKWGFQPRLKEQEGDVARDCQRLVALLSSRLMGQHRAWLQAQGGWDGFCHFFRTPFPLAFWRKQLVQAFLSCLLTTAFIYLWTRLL

[17] = viability loss in HeLa cells – cytotoxicity control for MgcRacGAP inhibitor project, dose response (AID 624300); format: functional
[18] = IC50 of Artemis nuclease activity blockers – biochemical, fluorescence intensity, dose response (AID 720701); format: functional;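 note: Artemis endonuclease enzyme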
[19] = biological target: T7, Protein RecA (Mycobacterium tuberculosis, UniProt P9WHJ3); assay: Fluorescence Cell-Free Homogeneous Dose Retest to Identify Inhibitors of RecA-Intein Splicing Activity. [Related pubchem assays (depositor defined):AID2097, AID2223, AID489010, AID492950]; format: functional
T7 sequence (P9WHJ3 whole entry): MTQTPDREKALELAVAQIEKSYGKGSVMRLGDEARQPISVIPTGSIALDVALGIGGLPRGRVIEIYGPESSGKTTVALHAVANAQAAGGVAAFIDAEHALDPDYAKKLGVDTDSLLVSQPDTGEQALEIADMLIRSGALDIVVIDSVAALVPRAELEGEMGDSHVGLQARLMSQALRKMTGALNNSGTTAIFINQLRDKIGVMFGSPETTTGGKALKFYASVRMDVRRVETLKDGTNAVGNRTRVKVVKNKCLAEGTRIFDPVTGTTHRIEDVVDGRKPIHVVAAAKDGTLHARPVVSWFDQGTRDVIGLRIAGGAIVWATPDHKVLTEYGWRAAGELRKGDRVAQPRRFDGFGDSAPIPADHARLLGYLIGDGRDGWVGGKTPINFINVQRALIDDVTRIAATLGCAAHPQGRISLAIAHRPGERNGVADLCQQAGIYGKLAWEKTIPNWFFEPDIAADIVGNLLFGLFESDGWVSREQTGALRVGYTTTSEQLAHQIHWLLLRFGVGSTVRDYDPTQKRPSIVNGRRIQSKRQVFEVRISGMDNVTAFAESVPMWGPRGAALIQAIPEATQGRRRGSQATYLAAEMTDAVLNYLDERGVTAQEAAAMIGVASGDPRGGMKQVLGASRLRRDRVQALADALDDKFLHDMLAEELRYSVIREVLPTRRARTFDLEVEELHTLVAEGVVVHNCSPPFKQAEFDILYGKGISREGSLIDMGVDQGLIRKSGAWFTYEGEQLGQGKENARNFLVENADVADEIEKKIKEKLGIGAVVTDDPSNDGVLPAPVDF

[20] = biological target: T8, Replicative DNA helicase DnaB (Mycobacterium tuberculosis, UniProt P9WMR3); assay: DnaB intein splicing inhibitors, dose response, biochemical, cell-free fluorescence (AID 449749); format: functional
T8 sequence (P9WMR3 whole entry): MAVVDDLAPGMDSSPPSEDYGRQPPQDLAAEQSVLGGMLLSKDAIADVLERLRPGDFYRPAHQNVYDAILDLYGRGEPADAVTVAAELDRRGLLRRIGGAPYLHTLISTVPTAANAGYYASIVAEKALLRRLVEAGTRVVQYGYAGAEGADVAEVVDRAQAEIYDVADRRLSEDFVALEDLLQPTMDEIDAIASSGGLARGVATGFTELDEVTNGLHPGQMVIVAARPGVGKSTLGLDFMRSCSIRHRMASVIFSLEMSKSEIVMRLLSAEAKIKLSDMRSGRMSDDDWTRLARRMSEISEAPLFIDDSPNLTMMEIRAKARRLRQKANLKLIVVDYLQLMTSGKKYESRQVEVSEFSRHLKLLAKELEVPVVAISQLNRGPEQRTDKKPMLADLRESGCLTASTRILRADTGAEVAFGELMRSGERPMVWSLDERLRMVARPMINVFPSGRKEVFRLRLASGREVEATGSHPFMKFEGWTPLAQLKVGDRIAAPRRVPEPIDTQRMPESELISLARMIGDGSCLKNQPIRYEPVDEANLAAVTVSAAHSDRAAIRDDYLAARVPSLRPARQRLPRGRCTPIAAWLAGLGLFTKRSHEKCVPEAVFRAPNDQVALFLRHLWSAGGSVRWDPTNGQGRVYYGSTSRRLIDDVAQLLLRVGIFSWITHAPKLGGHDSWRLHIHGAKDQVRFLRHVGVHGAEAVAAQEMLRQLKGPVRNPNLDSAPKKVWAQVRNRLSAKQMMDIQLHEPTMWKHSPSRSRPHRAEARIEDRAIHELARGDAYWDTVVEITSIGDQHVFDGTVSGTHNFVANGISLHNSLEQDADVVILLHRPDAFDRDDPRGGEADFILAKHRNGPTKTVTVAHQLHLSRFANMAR

[21] = biological target: Large T antigen (Simian virus 40, UniProt P03070); format: functional, Betapolyomavirus macacae;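 note: Confirmatory-stage PubChem screen for compounds that inhibit SV40 T antigen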
Sequence of Large T antigen (P03070 whole entry): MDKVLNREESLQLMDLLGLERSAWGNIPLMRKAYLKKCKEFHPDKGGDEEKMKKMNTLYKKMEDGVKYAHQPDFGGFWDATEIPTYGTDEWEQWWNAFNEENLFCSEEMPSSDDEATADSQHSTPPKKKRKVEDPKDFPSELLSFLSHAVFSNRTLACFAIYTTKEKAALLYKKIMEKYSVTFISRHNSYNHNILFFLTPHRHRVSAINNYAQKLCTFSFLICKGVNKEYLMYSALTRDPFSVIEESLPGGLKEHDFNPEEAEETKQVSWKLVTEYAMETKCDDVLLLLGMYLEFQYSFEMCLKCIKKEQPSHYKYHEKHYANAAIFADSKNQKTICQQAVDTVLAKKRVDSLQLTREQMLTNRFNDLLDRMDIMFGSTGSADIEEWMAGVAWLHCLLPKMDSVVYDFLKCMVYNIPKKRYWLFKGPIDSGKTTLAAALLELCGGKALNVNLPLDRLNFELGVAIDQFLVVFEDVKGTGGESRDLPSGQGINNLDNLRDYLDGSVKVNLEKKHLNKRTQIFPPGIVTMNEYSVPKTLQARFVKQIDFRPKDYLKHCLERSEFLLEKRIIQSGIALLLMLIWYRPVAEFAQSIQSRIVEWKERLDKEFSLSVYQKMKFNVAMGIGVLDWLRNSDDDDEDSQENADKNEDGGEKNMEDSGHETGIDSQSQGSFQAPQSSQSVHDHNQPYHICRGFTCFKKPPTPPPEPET

SMILES | EC50 [1] | EC50 [2] | AC50 [3] | AC50 [4] | IC50 [5] | IC50 [6] | IC50 [7] | also measured
C1COCCO1.CCOc1ccc(N2C(=O)CC(N(CCc3ccc(OC)c(OC)c3)C(S)=Nc3ccccc3)C2=O)cc1 (stereo not drawn) | > 59.7 µM (inactive) | > 59.7 µM (inactive) | – | – | – | – | – | –
CN(c1ccccc1)S(=O)(=O)c1ccc(-c2ccccc2)cc1 | – | – | 2.66 µM (active) | 62.2 µM (active) | – | – | – | –
Cc1cc(Cl)ccc1NC(=S)NCCC(c1ccccc1)c1ccccc1 | – | – | – | – | > 100 µM (inactive) | 7.04 µM (active) | 80.1 µM (active) | EC50 [8]: 48.5 µM (active)
Cc1cc(N2CCN(C)CC2)nc2ccc(NC(=S)N3CCN(c4ccc(Cl)cc4)CC3)cc12 | – | – | 0.367 µM (active) | 184 µM (active) | – | – | – | EC50 [9]: 11.9 µM (active); AC50 [10]: 3.07 µM (active); IC50 [11]: > 20 µM (inactive); EC50 [12]: 762 nM (active)
O=C(COc1ccccc1C(=O)N/N=C\c1ccc(O)c(O)c1)N/N=C/c1ccc(O)c(O)c1 | – | – | – | – | > 100 µM (inactive) | 12.8 µM (active) | > 100 µM (inactive) | IC50 [13]: > 59.6 µM (not active); IC50 [14]: 1.5 µM (active); IC50 [15]: 21.1 µM (active); IC50 [16]: 1.07 µM (active); CC50 [17]: 100 µM (active); IC50 [18]: 1.91 µM (active)
O=C(CCl)Nc1ccc(N2CCCCCC2)cc1 | > 59.7 µM (inactive) | > 59.7 µM (inactive) | – | – | – | – | – | EC50 [19]: 7.62 µM (active); AC50 [20]: 14.3 µM (active); IC50 [21]: 18.9 µM (active)
